Experimental findings from PMC6858350, “A common mechanism allows selective targeting of GluN2B subunit-containing N-methyl-D-aspartate receptors” (Communications Biology, 2019) are described below.

Marks after values point to notes of the source that are not given here.

Experiment [1] has as its target GluN1-1a/GluN2B NMDAR (wildtype) (Rattus norvegicus, UniProt P35439+Q00960). The experiment is classed as cell-based. The settings on record: for IC50 / p (slope of the dose-response curve) / A2 ± SE (maximum inhibition from dose-response curve): TEVC; for IC50: holding potential −70 mV, 10 µM glycine and 10 µM (S)-glutamate, read-out: IC50 ± SE; for p (slope of the dose-response curve) / A2 ± SE (maximum inhibition from dose-response curve): −70 mV; for A2 ± SE (maximum inhibition from dose-response curve): flexible A2; for IC50 shift compared to rac-1: wildtype GluN1-1a/GluN2B, IC50 increase relative to rac-1; for A2 (maximum inhibition), set as identical with rac-1: due to non-saturating inhibition A2 was fixed, not fitted; for inhibition at 10 µM: read-out: ion current inhibition % ± SEM, GluN2B.

The target in experiment [2] is T1, GluN1-1a WT/GluN2B F114A (Rattus norvegicus, UniProt P35439+Q00960, F114A). Conditions: GluN2B F114A; for A2, fixed-to-wildtype (*): maximum inhibition fixed to wildtype value.
The target of experiment [3] is T2, GluN1-1a WT/GluN2B F176Y (Rattus norvegicus, UniProt P35439+Q00960, F176Y). Put plainly: cell-based.
In experiment [4] the target is T3, GluN1-1a F113S/GluN2B WT (Rattus norvegicus, UniProt P35439+Q00960, F113S). The settings on record: GluN1-1a F113S; for A2 ± SE: flexible A2.
T3 sequence (Q00960 27-1482, other chains not shown): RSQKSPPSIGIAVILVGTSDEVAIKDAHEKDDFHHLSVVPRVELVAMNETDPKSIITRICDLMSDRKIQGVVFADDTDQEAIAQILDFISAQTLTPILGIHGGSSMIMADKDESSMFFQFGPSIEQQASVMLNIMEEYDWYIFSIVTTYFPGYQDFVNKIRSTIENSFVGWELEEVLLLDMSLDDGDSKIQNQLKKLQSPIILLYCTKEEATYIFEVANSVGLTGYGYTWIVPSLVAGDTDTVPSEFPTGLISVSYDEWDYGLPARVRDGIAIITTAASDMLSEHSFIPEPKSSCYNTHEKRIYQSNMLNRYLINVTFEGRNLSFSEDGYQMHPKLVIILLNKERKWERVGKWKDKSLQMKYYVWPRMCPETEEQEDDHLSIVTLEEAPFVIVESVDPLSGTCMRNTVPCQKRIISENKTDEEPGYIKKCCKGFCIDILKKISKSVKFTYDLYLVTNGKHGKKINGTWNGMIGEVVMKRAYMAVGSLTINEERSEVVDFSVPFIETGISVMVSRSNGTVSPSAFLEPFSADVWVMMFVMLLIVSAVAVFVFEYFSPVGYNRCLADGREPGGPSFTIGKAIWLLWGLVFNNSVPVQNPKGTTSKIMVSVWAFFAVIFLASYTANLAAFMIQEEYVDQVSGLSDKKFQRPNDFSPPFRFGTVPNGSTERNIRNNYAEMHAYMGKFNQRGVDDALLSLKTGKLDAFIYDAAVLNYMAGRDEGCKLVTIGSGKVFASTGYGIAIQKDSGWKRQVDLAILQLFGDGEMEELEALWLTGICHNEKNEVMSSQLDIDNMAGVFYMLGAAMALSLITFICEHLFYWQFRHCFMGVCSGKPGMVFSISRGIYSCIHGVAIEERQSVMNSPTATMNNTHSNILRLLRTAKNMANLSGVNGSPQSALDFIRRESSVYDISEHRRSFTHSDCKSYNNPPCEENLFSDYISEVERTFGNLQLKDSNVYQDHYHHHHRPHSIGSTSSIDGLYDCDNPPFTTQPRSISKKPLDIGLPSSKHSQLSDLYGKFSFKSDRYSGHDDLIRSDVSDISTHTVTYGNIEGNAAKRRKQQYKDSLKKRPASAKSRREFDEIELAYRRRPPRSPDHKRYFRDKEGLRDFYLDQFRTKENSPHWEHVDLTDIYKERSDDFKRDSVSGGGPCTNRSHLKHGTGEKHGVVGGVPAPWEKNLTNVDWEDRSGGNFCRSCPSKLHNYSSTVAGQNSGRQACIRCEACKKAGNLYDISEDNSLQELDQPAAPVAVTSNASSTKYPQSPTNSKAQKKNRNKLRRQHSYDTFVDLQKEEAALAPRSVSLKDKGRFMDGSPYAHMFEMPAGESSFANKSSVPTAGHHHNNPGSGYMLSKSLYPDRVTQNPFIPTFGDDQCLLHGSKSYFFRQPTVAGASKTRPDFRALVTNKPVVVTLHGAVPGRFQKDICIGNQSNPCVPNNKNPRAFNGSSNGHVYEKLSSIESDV
Experiment [5] addresses T1, GluN1-1a WT/GluN2B F114A. Put plainly: cell-based.
The next experiment addresses GluN1-1a/GluN2A NMDAR (Rattus norvegicus, UniProt P35439+Q00959). Put plainly: cell-based. Conditions: read-out: ion current inhibition % ± SEM, GluN2A.
Experiment [6] concerns the target T3, GluN1-1a F113S/GluN2B WT. Nature of the experiment: cell-based.
For another experiment, the target named is GluN1-1a/GluN2C NMDAR (Rattus norvegicus, UniProt P35439+Q00961). Nature of the experiment: cell-based. Conditions: read-out: ion current inhibition % ± SEM, GluN2C.
Experiment [7] has as its target T4, GluN1-1a WT/GluN2B F176A (Rattus norvegicus, UniProt P35439+Q00960, F176A). Put plainly: cell-based.
Experiment [8] has as its target T5, GluN1-1a WT/GluN2B I111A (Rattus norvegicus, UniProt P35439+Q00960, I111A). Nature of the experiment: cell-based.
For experiment [9], the system named is NMDA receptor-dependent EPSCs in CA1 pyramidal neurons. Put plainly: whole cell patch-clamp of evoked NMDAR-dependent EPSCs in hippocampal slices. The experiment is classed as cell-based, C57BL/6J mice. Conditions: n = 5; for EPSC amplitude after washout, % of the initial baseline (SEM): washout of compound.
In experiment [10] the target is T6, GluN1-1a WT/GluN2B Q110A (Rattus norvegicus, UniProt P35439+Q00960, Q110A). Put plainly: cell-based.
The target of experiment [11] is T2, GluN1-1a WT/GluN2B F176Y. Conditions: GluN2B F176Y; for A2, fixed-to-wildtype (*): maximum inhibition fixed to wildtype value.
The target in experiment [12] is T7, GluN1-1a S132A/GluN2B WT (Rattus norvegicus, UniProt P35439+Q00960, S132A). The settings on record: GluN1-1a S132A; for A2 ± SE: flexible A2.
The target in experiment [13] is T8, GluN1-1a L135N/GluN2B WT (Rattus norvegicus, UniProt P35439+Q00960, L135N). Conditions: GluN1-1a L135N; for A2 ± SE: flexible A2.
The target in experiment [14] is T9, GluN1-1a Y109S/GluN2B WT (Rattus norvegicus, UniProt P35439+Q00960, Y109S). Conditions: GluN1-1a Y109S; for A2 ± SE: flexible A2.
In experiment [15] the target is T10, GluN1-1a WT/GluN2B E236A (Rattus norvegicus, UniProt P35439+Q00960, E236A). Put plainly: cell-based.
T10 sequence (Q00960 27-1482 E236A, other chains not shown): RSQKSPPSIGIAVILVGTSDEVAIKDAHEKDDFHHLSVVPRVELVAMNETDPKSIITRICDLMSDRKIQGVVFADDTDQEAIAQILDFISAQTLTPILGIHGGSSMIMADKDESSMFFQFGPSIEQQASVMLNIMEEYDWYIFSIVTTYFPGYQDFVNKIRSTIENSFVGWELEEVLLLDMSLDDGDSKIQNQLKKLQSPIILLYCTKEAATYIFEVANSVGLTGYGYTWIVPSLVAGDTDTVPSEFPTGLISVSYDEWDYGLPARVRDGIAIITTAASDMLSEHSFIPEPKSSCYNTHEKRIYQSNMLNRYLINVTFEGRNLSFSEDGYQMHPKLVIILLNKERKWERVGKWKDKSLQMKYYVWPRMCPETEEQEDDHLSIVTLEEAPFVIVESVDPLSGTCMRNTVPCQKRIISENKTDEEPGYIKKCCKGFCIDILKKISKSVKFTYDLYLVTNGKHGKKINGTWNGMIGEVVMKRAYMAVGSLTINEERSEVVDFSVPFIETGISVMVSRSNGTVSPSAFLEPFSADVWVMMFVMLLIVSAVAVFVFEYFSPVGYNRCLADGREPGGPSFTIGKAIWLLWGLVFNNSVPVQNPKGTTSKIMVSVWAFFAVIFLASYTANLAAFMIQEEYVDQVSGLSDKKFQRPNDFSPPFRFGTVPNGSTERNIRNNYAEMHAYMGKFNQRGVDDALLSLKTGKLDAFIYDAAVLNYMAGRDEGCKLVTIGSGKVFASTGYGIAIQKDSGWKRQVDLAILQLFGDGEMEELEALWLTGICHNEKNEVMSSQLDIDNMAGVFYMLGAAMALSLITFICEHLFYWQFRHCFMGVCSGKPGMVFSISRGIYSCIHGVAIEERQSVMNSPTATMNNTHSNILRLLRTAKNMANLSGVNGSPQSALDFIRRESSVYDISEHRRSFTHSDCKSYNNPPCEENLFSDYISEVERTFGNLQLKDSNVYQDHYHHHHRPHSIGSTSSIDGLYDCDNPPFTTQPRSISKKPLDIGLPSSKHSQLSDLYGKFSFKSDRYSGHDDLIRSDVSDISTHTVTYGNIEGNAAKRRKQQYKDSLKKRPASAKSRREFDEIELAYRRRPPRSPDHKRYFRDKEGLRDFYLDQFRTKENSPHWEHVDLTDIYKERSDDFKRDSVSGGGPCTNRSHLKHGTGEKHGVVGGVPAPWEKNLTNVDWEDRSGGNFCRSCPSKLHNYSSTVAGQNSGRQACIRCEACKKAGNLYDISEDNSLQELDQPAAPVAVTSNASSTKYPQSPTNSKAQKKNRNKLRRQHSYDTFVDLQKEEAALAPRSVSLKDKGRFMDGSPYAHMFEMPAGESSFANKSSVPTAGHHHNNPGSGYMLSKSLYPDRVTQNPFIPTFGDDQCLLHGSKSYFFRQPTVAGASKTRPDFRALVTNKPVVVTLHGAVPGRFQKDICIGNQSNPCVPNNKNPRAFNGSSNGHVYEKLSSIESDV
Experiment [16] has as its target T6, GluN1-1a WT/GluN2B Q110A. Conditions: GluN2B Q110A; for A2 ± SE: flexible A2.
The target in experiment [17] is T7, GluN1-1a S132A/GluN2B WT. Put plainly: cell-based.
For a further experiment, the target named is GluN1-1a/GluN2D NMDAR (Rattus norvegicus, UniProt P35439+Q62645). Nature of the experiment: cell-based. Conditions: read-out: ion current inhibition % ± SEM, GluN2D.
Experiment [18] deals with T5, GluN1-1a WT/GluN2B I111A. Conditions: GluN2B I111A; for A2 ± SE: flexible A2.
Experiment [19] has as its target T8, GluN1-1a L135N/GluN2B WT. Nature of the experiment: cell-based.
Experiment [20] addresses T10, GluN1-1a WT/GluN2B E236A. The settings on record: GluN2B E236A; for A2 ± SE: flexible A2.
The target of experiment [21] is T9, GluN1-1a Y109S/GluN2B WT. Put plainly: cell-based.
Experiment [22] deals with T4, GluN1-1a WT/GluN2B F176A. Conditions: GluN2B F176A; for A2, fixed-to-wildtype (*): maximum inhibition fixed to wildtype value.

GluN1-1a/GluN2B NMDAR (wildtype), sequence (Q00960 27-1482, other chains not shown): as the sequence (Q00960 27-1482, other chains not shown) above

For orientation: IC50 means the point on the concentration scale where inhibition reaches its midpoint. For `Oc1ccc2c(c1)CCN(CCCCc1ccccc1)CC2` [compound 3], in experiment [1] (wildtype), the IC50 stood at 3370 ± 926 nM, the “p (slope of the dose-response curve)” value was 0.93 and the “A2 ± SE (maximum inhibition from dose-response curve)” value is 92 ± 8%. Further, the “IC50 shift compared to rac-1” value in [1] was 36 fold.

For the compound `COc1ccc2c(c1)CCN(CCCCc1ccccc1)CC2O` (stereo not drawn) [compound 4], in experiment [1] (wildtype), the IC50 worked out at 1300 ± 483 nM, the “p (slope of the dose-response curve)” value stood at 0.70 and the “A2 ± SE (maximum inhibition from dose-response curve)” value amounted to 100 ± 9%. For the same compound, the “IC50 shift compared to rac-1” value in experiment [1] is recorded as 14 fold.

The term inhibition denotes the share of the control response that was lost under treatment. Take `c1ccc(CCCCN2CCc3ccccc3CC2)cc1` [compound 5]: the “Inhibition (% ± SEM) of ion flux” value in experiment [1] (compound concentration 30 µM, wildtype) was “almost inactive”. Besides, in experiment [1] (compound concentration 30 µM, wildtype, read-out: Inhibition (% ± SEM) of ion flux), the inhibition at 30 µM amounted to 9 ± 2%.

For `Oc1ccc2c(c1)CCN([C@H]1CC[C@H](c3ccccc3)CC1)CC2O` (stereo partly drawn) [compound 6], in experiment [1] (wildtype), the IC50 is 2630 ± 296 nM and the “p (slope of the dose-response curve)” value amounted to 0.70. Further, the “A2 (maximum inhibition), set as identical with rac-1” value in [1] is listed as 93^d %.

As for `Oc1ccc2c(c1)CCN([C@H]1CC[C@@H](c3ccccc3)CC1)CC2O` (stereo partly drawn) [compound 7], in experiment [1] (wildtype), the IC50 came out at 7210 ± 1770 nM and the “p (slope of the dose-response curve)” value stood at 0.62. The “A2 (maximum inhibition), set as identical with rac-1” value in experiment [1] was 93^d %.

In the case of `Oc1ccc2c(c1)CCN(CCCCc1ccccc1)C[C@@H]2O` [compound (R)-1], the “p (slope)” value was determined as 1.35 at GluN1-1a WT/GluN2B F114A [2]; 0.50 at GluN1-1a F113S/GluN2B WT [4]; 0.82 on GluN1-1a WT/GluN2B F176Y [11]; 0.66 on GluN1-1a L135N/GluN2B WT [13]; 1.42 at GluN1-1a Y109S/GluN2B WT [14]; 2.18 at GluN1-1a WT/GluN2B Q110A [16]. Further, the “p (slope)” value on GluN1-1a WT/GluN2B I111A [18] worked out at 0.92; at GluN1-1a WT/GluN2B E236A [20] it was 1.32; on GluN1-1a WT/GluN2B F176A [22] it was 0.40. In addition, the “A2, fixed-to-wildtype (*)” value at GluN1-1a WT/GluN2B F114A [2], at GluN1-1a WT/GluN2B F176Y [11] and on GluN1-1a WT/GluN2B F176A [22] was 93% throughout. The IC50 on GluN1-1a WT/GluN2B F176Y [3] was 107 ± 20 nM; at GluN1-1a WT/GluN2B F114A [5], 4080 ± 423 nM; on GluN1-1a F113S/GluN2B WT [6] it was 117 ± 48 nM; against GluN1-1a WT/GluN2B F176A [7], 105000 ± 41000 nM; in [1] (wildtype), 53 ± 3 nM; at GluN1-1a WT/GluN2B I111A [8], 137 ± 31 nM. For the same compound, the IC50 worked out at 393 ± 24 nM on GluN1-1a WT/GluN2B Q110A [10]; 194 ± 30 nM against GluN1-1a WT/GluN2B E236A [15]; 106 ± 14 nM at GluN1-1a S132A/GluN2B WT [17]; 293 ± 74 nM on GluN1-1a L135N/GluN2B WT [19]; 20 ± 2 nM at GluN1-1a Y109S/GluN2B WT [21]. For the same compound, the “A2 ± SE” value at GluN1-1a F113S/GluN2B WT [4] turned out to be 77 ± 5%; on GluN1-1a S132A/GluN2B WT [12], 92 ± 2%; at GluN1-1a L135N/GluN2B WT [13] it was 72 ± 3%; at GluN1-1a Y109S/GluN2B WT [14], 92 ± 2%; on GluN1-1a WT/GluN2B Q110A [16], 91 ± 1%; at GluN1-1a WT/GluN2B I111A [18] it was 66 ± 3%. The “A2 ± SE” value at GluN1-1a WT/GluN2B E236A [20] was found to be 85 ± 1%. Further, the inhibition at 10 µM on GluN1-1a/GluN2A NMDAR worked out at 4 ± 1%; on GluN1-1a/GluN2C NMDAR it was 8 ± 1%; in experiment [1], 95 ± 1%; at GluN1-1a/GluN2D NMDAR it was 18 ± 3%. In addition, the “p (slope of the dose-response curve)” value in [1] (wildtype) is given as 1.11. Besides, in experiment [1] (wildtype), the “A2 ± SE (maximum inhibition from dose-response curve)” value turned out to be 93 ± 1%. Besides, the “EPSC amplitude, % of the initial baseline (SEM)” value in experiment [9] (2 µM compound) is recorded as 60.2 ± 2.8%; in [9] (7 µM compound) it was 13.8 ± 1.4%. Moreover, in [9], the “EPSC amplitude after washout, % of the initial baseline (SEM)” value amounted to 30.9 ± 3.6%.

For the compound `CC(C(O)c1ccc(O)cc1)N1CCC(Cc2ccccc2)CC1` (stereo not drawn) [ifenprodil, reference compound], the “p (slope)” value at GluN1-1a WT/GluN2B F114A [2] came to 0.63; on GluN1-1a F113S/GluN2B WT [4], 1.09; at GluN1-1a WT/GluN2B F176Y [11] it was 0.57; on GluN1-1a S132A/GluN2B WT [12], 0.79; on GluN1-1a L135N/GluN2B WT [13], 0.99; at GluN1-1a Y109S/GluN2B WT [14], 0.88. The “p (slope)” value at GluN1-1a WT/GluN2B Q110A [16] is reported as 0.64; at GluN1-1a WT/GluN2B I111A [18], 0.90; at GluN1-1a WT/GluN2B E236A [20], 1.18; on GluN1-1a WT/GluN2B F176A [22], 0.87. Also, the “A2, fixed-to-wildtype (*)” value on GluN1-1a WT/GluN2B F114A [2], at GluN1-1a WT/GluN2B F176Y [11] and on GluN1-1a WT/GluN2B F176A [22] was 94% each time. In addition, the “A2 ± SE” value on GluN1-1a F113S/GluN2B WT [4] came out at 72 ± 3%; at GluN1-1a S132A/GluN2B WT [12] it was 89 ± 3%; on GluN1-1a L135N/GluN2B WT [13], 76 ± 3%; on GluN1-1a Y109S/GluN2B WT [14], 74 ± 2%; at GluN1-1a WT/GluN2B Q110A [16], 98 ± 5%; at GluN1-1a WT/GluN2B I111A [18], 68 ± 7%. At GluN1-1a WT/GluN2B E236A [20], the “A2 ± SE” value was determined as 88 ± 5%. Moreover, the inhibition at 10 µM is 5 ± 1% at GluN1-1a/GluN2A NMDAR, 9 ± 1% on GluN1-1a/GluN2C NMDAR, 91 ± 1% in experiment [1] and 24 ± 4% at GluN1-1a/GluN2D NMDAR. Moreover, the “p (slope of the dose-response curve)” value in experiment [1] (wildtype) was found to be 0.97. For the same compound, the “A2 ± SE (maximum inhibition from dose-response curve)” value in experiment [1] (wildtype) was determined as 94 ± 2%. For the same compound, the “EPSC amplitude, % of the initial baseline (SEM)” value in [9] (1 µM compound) was 74.4 ± 8.9%; in experiment [9] (6 µM compound), 22.7 ± 4.7%. Moreover, the “EPSC amplitude after washout, % of the initial baseline (SEM)” value in experiment [9] came to 31.9 ± 5%.
